Test results: patent US20230242616A1, “CHEMOKINE-SELECTIVE CXCR4 ECTODOMAIN-DERIVED (POLY)PEPTIDE” (Ludwig-Maximilians-Universität München, priority 2020, published 2023)

What was measured:
[1] = system: primary human monocyte-derived macrophages; assay: Dil-LDL uptake / foam cell formation, MIF-mediated; assay type: cell-based; conditions: 80 nM MIF
Protocol: Dil-LDL uptake/foam cell formation. […] After washing with imaging solution (MEM without phenol red containing 30 mM HEPES, 0.5 g/L NaHCO3, pH 7.4, and 0.2% BSA), cells were exposed to 50 μg/mL 1,1′-dioctadecyl-3,3,3′3′-tetra-methylindocarbocyanine-labeled LDL (Dil-LDL) for 30 min at 4° C. followed by incubation at 37° C. for 20 min. Cells were washed with ice-cold imaging solution (pH 3.5), fixed, and counter-stained with Hoechst 33258.

[2] = system: human monocyte-derived macrophages; conditions: from titration of the CXCR4 inhibitor
[3] = system: human monocyte-derived macrophages; assay: cells; conditions: Macrophage, read-out: IC50 of MIF-triggered Dil-oxLDL uptake
[4] = target: T1, CXCL12 (Homo sapiens, UniProt P48061); assay: Dot blot titration with TAMRA-msR4M-L1, immobilized CXCL12; assay type: binding
T1 construct: purchased Peprotech (or a gift of Dr. von Hundelshausen, LMU Munich)
T1 sequence (P48061 22-93): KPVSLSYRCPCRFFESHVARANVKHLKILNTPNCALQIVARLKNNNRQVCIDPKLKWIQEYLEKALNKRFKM
Protocol: Dot blot. […] Non-specific binding was blocked with Tris-buffered saline (TBS), pH 7.4, containing 0.1% Tween-20 (TBS-T) and 1% BSA. […] Fluorescence intensities were measured at 600 nm using an Odyssey® Fc imager (LICOR Biosciences, Bad Homburg, Germany). The total intensity of each spot was automatically corrected by the individual background signal.

[5] = target: T2, plaque-associated MIF (Mus musculus, UniProt P34884); assay: Staining of mouse atherosclerotic plaque sections with Fluos-msR4M-L1; conditions: Ldlr−/− aortic root, Apoe−/− brachiocephalic artery
T2 construct: from tissue; host or cells: aortic root (Ldlr-/-) and brachiocephalic artery (Apoe-/-) sections of atherogenic mice
Protocol: Staining of atherosclerotic plaque tissue with Fluos-msR4M-L1. Immunofluorescent staining of atherosclerotic tissue with Fluos-msR4M-L1 was performed with specimens from atherogenic Ldlr^−/− and Apoe^−/− mice. Ldlr^−/− mice were on chow diet for 30 weeks and developed native atherosclerotic lesions as reported previously^14. Mif-deficient mice (Ldlr^−/− Mif^−/−) were used for comparison. Aortic root sections were deparaffinized and rehydrated. For antigen retrieval, slides were boiled in sodium citrate buffer, pH 6.0, 0.05% Tween-20, and blocked with PBS, containing 5% donkey serum and 1% BSA. For staining, slides were incubated at 4° C. with Fluos-msR4M-L1 (5 μM) in blocking buffer. DAPI was used for nuclear counterstain and sections were imaged using a Leica DMI8 fluorescent microscope. The mean fluorescence intensity localized to the aortic vessel wall was quantified via Image J.
Sides were fixed in ice-cold acetone, rehydrated in PBS, and blocked in PBS/1% BSA, incubated with 500 nM Fluos-msR4M-L1, and analyzed as above.

[6] = system: atherogenic Apoe−/− mice; assay: Localization of in-vivo-administered Fluos-msR4M-L1 (multiphoton microscopy); design: species or system mouse; conditions: three days before vessel preparation
[7] = system: human carotid atherosclerotic plaque sections; assay: Staining of human carotid endarterectomy plaque sections with Fluos-msR4M-L1
From the text: Patient population, study groups and tissue samples. Carotid artery tissue samples (n=28) came from the Munich Vascular Biobank (MVB) and were from patients who underwent carotid endarterectomy (CEA) in the Department of Vascular and Endovascular Surgery at University Hospital of Technische Universität München. Preparation of samples for histological and IHC analysis has been reported^40. […] Healthy FFPE carotid vessels were obtained from the Forensic Medicine Department (n=6). The type of atherosclerotic lesions in the CEA samples was determined according to the American Heart Association (AHA) guidelines using HE and Elastica-van-Gieson (EVG) staining procedures as described^40. […] The study was approved by the local ethical committee of the University Hospital and followed the Guidelines of the World Medical Association Declaration of Helsinki. All patients provided informed consent. Immunohistochemistry/immunofluorescence staining. Immunofluorescence staining of human CEA tissues with Fluos-msR4M-L1 was performed using the same protocol as for paraffin-embedded specimens from Ldlr^−/− mice (see above). […] HRP-conjugated polyclonal rabbit anti-goat immunoglobulin (DAKO, P0160, 1:1000) was used as secondary antibody. Slides were counterstained with Mayer hematoxylin and stainings analyzed with a Leica DMi8.

c1cc(CN2CCCNCCNCCCNCC2)ccc1CN1CCCNCCNCCCNCC1 [AMD3100, reference compound]
effect on MIF-mediated Dil-LDL uptake [1]: blocked | CXCR4-dependent part of MIF-triggered oxLDL uptake [2]: approximately 50% | IC50 [3]: 48.9 nM

CC[C@H](C)[C@H](NC(=O)[C@H](Cc1ccc(O)cc1)NC(=O)[C@H](CCCNC(=N)N)NC(=O)[C@H](CC(=O)O)NC(=O)CCCCCCCCCCCNC(=O)CCCCCNC(=O)[C@H](CCCCN)NC(=O)[C@H](CS)NC(=O)[C@H](CC(C)C)NC(=O)[C@H](Cc1ccccc1)NC(=O)[C@H](CC(N)=O)NC(=O)CNC(=O)[C@H](Cc1ccccc1)NC(=O)[C@H](Cc1ccc(O)cc1)NC(=O)[C@H](Cc1c[nH]c2ccccc12)NC(=O)[C@H](CC(N)=O)NC(=O)[C@H](C)NC(=O)[C@@H](NC(=O)[C@H](C)NC(=O)[C@H](CC(=O)O)NC(=O)c1ccc2c(c1)C(=O)OC21c2ccc(N(C)C)cc2Oc2cc(N(C)C)ccc21)C(C)C)C(=O)N[C@@H](CS)C(=O)N[C@@H](CC(=O)O)C(=O)N[C@@H](CCCNC(=N)N)C(=O)N[C@@H](Cc1ccccc1)C(=O)N[C@@H](Cc1ccc(O)cc1)C(=O)N1CCC[C@H]1C(=O)N[C@@H](CC(N)=O)C(=O)N[C@@H](CC(=O)O)C(=O)N[C@@H](CC(C)C)C(=O)N[C@@H](Cc1c[nH]c2ccccc12)C(=O)N[C@H](C(N)=O)C(C)C [TAMRA-msR4M-L1, TAMRA-ECL1-6-Ahx-12-Ado-ECL2]
binding to immobilized CXCL12 on dot blot [4]: no binding to CXCL12

Fluos-ECL1-6-Ahx-12-Ado-ECL2 (DAVANWYFGNFLCKDRYICDRFYPNDLWV; non-natural residues) [Fluos-msR4M-L1]
staining of plaque sections, Mif-proficient versus Mif-deficient mice [5]: significantly more pronounced in plaque tissue from Mif-proficient atherogenic | tissue localization after intraperitoneal injection [6]: strongly localized to intimal plaque areas, while staining in spleen, liver, and brain was marginal | staining of stable versus unstable human carotid plaques and healthy vessels [7]: pronounced staining of stable carotid plaque tissue that was higher than Fluos-msR4M-L1 positivity detected in unstable plaques and healthy vessels
